According to patent US5182113A, “Factor Xa inibitor from leech and pharmaceutical compositions containing same” (Bio-Technology General Corp., priority 1988, dated 1993):
“Also recorded” adds a separate entry of the source.

Legend:
F.Xa = conditions: substrate affinity; cited from earlier work
bovine thrombin = experiment: Inhibition of bovine thrombin activity on chromogenic substrate; type: biochemical; conditions: result in words
Protocol: (§1) Regarding the methods, synthetic substrates having a chromogenic end group such as pNA (para- nitroanilide) are preferably used, enabling easy monitoring of the progress of the coagulation by spectrophotometer methods. […] The reactions were monitored at 405 nm in a spectrophotometer connected to a computer and the kinetic parameter were calculated from the appropriate extinction coefficients by a Jackson-Labanowski linear regression program. The measurements were carried out in disposable polystyrene cuvettes at pH of 7.8 and a temperature of 25° C.

bovine F.Xa = experiment: Affinity binding to bovine F.Xa immobilized on Affi-Gel 10; conditions: leech saliva passed through column, pH 7.9
Protocol: The inhibitor/modulator of the present invention may be isolated from the saliva by adsorption on an Affi-Gel column on which bovine F.Xa is fixed and subsequent elution with acetic acid. Hirudin was not adsorbed on said gel. Affi-Gel 10 is used, which is a derivatized ross-linked agarose containing a 10-atom spacer arm esterified to N-hydroxysuccinimide. The capacity of this gel is 10 micromoles/ml.
1. Coupling. To 1ml washed Affi-Gel 10 in a mini-column were added 2ml of a dialyzed BXa solution (40 nmoles) in 0.05 M Hepes/0.1 M NaCl buffer pH 7.5. The column was shaken for 2 h at room temp. The supernatant was then run off the column, which was not allowed to dry. Ninety four percent of the BXa load was bound to the gel.
3. Affinity binding of XaM. Leech saliva (40 ml, 305 pmoles XaM) was adjusted to pH 7.9 by adding 1% v/v 1M Tris pH 8 and was passed through the column. Ninety two percent of the XaM was bound to the gel. Hirudin was not bound.

bovine Factor Xa [1] = experiment: Inhibition of bovine Xa activity on chromogenic substrate; type: biochemical; conditions: result in words
Protocol: as §1

bovine Factor Xa [2] = conditions: literature (Tuszynski, Gasic and Gasic 1987); cited from earlier work

N=C(N)NCCC[C@H](NC(=O)[C@@H]1CCCCN1C(=O)[C@H](N)Cc1ccccc1)C(=O)Nc1ccc([N+](=O)[O-])cc1 [S2238, D-Phe-Pipecolyl-L-Arg-pNa]
Km (F.Xa): 46.9 µM

hirudin
inhibition of thrombin (bovine thrombin): inhibits thrombin | adsorption on Affi-Gel with fixed bovine F.Xa (bovine F.Xa): not adsorbed; also recorded: not bound | inhibition of bovine F.Xa (bovine Factor Xa [1]): does not inhibit bovine F.Xa

B1: antistasin (protein, UniProt P15358 18-136, looked up)
Antistasin: QGPFGPGCEEAGCPEGSACNIITDRCTCSGVRCRMHCPHGFQRSRYGCEFCKCRLEPMKATCDISECPEGMMCSRLTNKCDCKIDINCRKTCPNGLKRDKLGCEYCECRPKRKLIPRLS
remaining BXa activity at which the dose-response curve flattens out (bovine Factor Xa [2]): about 50%
